According to patent publication US20150105252A1, “SUBSTITUTED PYRAZOLES AS HERBICIDES” (E I DU PONT DE NEMOURS AND COMPANY, priority 2013, published 2015):

What was measured:
Assay in all cases: Test F preemergence
corn = type: in vivo, Zea mays
Source text: (§1) Seeds of plant species selected from corn (Zea mays), soybean (Glycine max), velvetleaf (Abutilon theophrasti), lambsquarters (Chenopodium album), wild poinsettia (Euphorbia heterophylla), pigweed, palmer (palmer pigweed, Amaranthus palmeri), common waterhemp (Amaranthus rudis), surinam grass (Brachiaria decumbens), large crabgrass (Digitaria sanguinalis), crabgrass, Brazil (Brazilian crabgrass, Digitaria horizontalis), fall panicum (Panicum dichotomiflorum), giant foxtail (Setaria faberii), green foxtail (Setaria viridis), goosegrass (Eleusine indica), johnsongrass (Sorghum halepense), common ragweed (Ambrosia elation), barnyardgrass (Echinochloa crus-galli), southern sandbur (Cenchrus echinatus), arrowleaf sida (Sida rhombifolia), Italian ryegrass (Lolium multiflorum), dayflower, VA (Virginia (VA) dayflower, Commelina virginica), field bindweed (Convolvulus arvensis), cocklebur (common cocklebur, Xanthium strumarium), morningglory (Ipomoea coccinea), nightshade (eastern black nightshade, Solanum ptycanthum), kochia (Kochia scoparia), yellow nutsedge (Cyperus esculentus), and hairy beggarticks (Bidens pilosa), were planted into a silt loam soil and treated preemergence with test chemicals formulated in a non-phytotoxic solvent mixture which included a surfactant.
(§2) At the same time, plants from these crop and weed species and also horseweed (Canada horseweed, Conyza canadensis), smartweed (ladysthumb smartweed, Polygonum persicaria), waterhemp_RES1, (ALS & Triazine resistant common waterhemp, Amaranthus rudis), and waterhemp_RES2, (ALS & HPPD resistant common waterhemp, Amaranthus rudis) were treated with postemergence applications of test chemicals formulated in the same manner. Plants ranged in height from 2 to 18 cm for postemergence treatments (1- to 4-leaf stage). Treated plants and controls were maintained in a greenhouse for 14 to 21 days, after which time all species were compared to controls and visually evaluated. Plant response ratings, summarized in Table F, are based on a scale of 0 to 100 where 0 is no effect and 100 is complete control. A dash (-) response means no test result.

pigweed, palmer = type: in vivo, Amaranthus palmeri
Source text: as §1, §2

crabgrass, Brazil = type: in vivo, Digitaria horizontalis
Source text: as §1, §2

fall panicum = type: in vivo, Panicum dichotomiflorum
Source text: as §1, §2

goosegrass = type: in vivo, Eleusine indica
Source text: as §1, §2

johnsongrass = type: in vivo, Sorghum halepense
Source text: as §1, §2

Italian ryegrass = type: in vivo, Lolium multiflorum
Source text: as §1, §2

[1] = Preemergence, 31 g ai/ha, scale 0 to 100
[2] = Preemergence, 62 g ai/ha, scale 0 to 100
[3] = Preemergence, 125 g ai/ha, scale 0 to 100
[4] = preemergence, 8 g ai/ha, scale 0 to 100, 100 is complete control
[5] = preemergence, 16 g ai/ha, scale 0 to 100, 100 is complete control
[6] = Preemergence, 16 g ai/ha, scale 0 to 100

| Structure (SMILES) | Plant response rating, Corn (corn; [2]) | Plant response rating, Corn (corn; [3]) | Plant response rating, Corn (corn; [4]) | Plant response rating, Pigweed, Palmer (pigweed, palmer; [2]) | Plant response rating, Pigweed, Palmer (pigweed, palmer; [3]) | Plant response rating, Pigweed, Palmer (pigweed, palmer; [4]) | Plant response rating, Crabgrass, Brazil (crabgrass, Brazil; [2]) | Plant response rating, Crabgrass, Brazil (crabgrass, Brazil; [3]) | Plant response rating, Crabgrass, Brazil (crabgrass, Brazil; [4]) | Plant response rating, Fall Panicum (fall panicum; [2]) | Plant response rating, Fall Panicum (fall panicum; [3]) | Plant response rating, Fall Panicum (fall panicum; [4]) | Plant response rating, Goosegrass (goosegrass; [2]) | Plant response rating, Goosegrass (goosegrass; [3]) | Plant response rating, Goosegrass (goosegrass; [4]) | Plant response rating, Johnsongrass (johnsongrass; [2]) | Plant response rating, Johnsongrass (johnsongrass; [3]) | Plant response rating, Johnsongrass (johnsongrass; [4]) | Plant response rating, Italian Ryegrass (Italian ryegrass; [2]) | Plant response rating, Italian Ryegrass (Italian ryegrass; [3]) | also measured |
| --- | --- | --- | --- | --- | --- | --- | --- | --- | --- | --- | --- | --- | --- | --- | --- | --- | --- | --- | --- | --- | --- |
| CCOc1cc(C(=O)NCC(F)(F)F)nn1Cc1ccnc(C(F)(F)F)c1 [Compound 104] | 50 | 60 | 0 | 50 | 100 | 0 | 100 | 100 | 5 | 100 | 100 | 15 | 75 | 100 | 5 | 75 | 100 | 15 | 60 | 75 | Plant response rating, Corn (corn; [1]): 30; Plant response rating, Corn (corn; [5]): 0; Plant response rating, Pigweed, Palmer (pigweed, palmer; [1]): 50; Plant response rating, Pigweed, Palmer (pigweed, palmer; [5]): 0; Plant response rating, Crabgrass, Brazil (crabgrass, Brazil; [1]): 95; Plant response rating, Crabgrass, Brazil (crabgrass, Brazil; [5]): 10; Plant response rating, Fall Panicum (fall panicum; [1]): 90; Plant response rating, Fall Panicum (fall panicum; [5]): 85; Plant response rating, Goosegrass (goosegrass; [1]): 30; Plant response rating, Goosegrass (goosegrass; [5]): 25; Plant response rating, Johnsongrass (johnsongrass; [1]): 60; Plant response rating, Johnsongrass (johnsongrass; [5]): 35; Plant response rating, Italian Ryegrass (Italian ryegrass; [1]): 40; Plant response rating, Italian Ryegrass (Italian ryegrass; [4]): 0; Plant response rating, Italian Ryegrass (Italian ryegrass; [5]): 0 |
| CCNC(=O)c1cc(CCCl)n(Cc2ccnc(C(F)(F)F)c2)n1 [Compound 179] | 30 | 30 | 0 | 35 | 100 | 0 | 100 | 100 | 0 | 70 | 98 | 0 | 30 | 30 | 0 | 20 | 70 | 0 | 40 | 65 | Plant response rating, Corn (corn; [1]): 20; Plant response rating, Pigweed, Palmer (pigweed, palmer; [1]): 0; Plant response rating, Crabgrass, Brazil (crabgrass, Brazil; [1]): 75; Plant response rating, Fall Panicum (fall panicum; [1]): 35; Plant response rating, Goosegrass (goosegrass; [1]): 30; Plant response rating, Johnsongrass (johnsongrass; [1]): 20; Plant response rating, Italian Ryegrass (Italian ryegrass; [1]): 10; Plant response rating, Italian Ryegrass (Italian ryegrass; [4]): 0 |
| CCNC(=O)c1cc(CC)n(Cc2ccnc(C(F)(F)F)c2)n1 [Compound 196] | 0 | 25 | 0 | 100 | 100 | 0 | 100 | 100 | 30 | 98 | 100 | 0 | 70 | 95 | 0 | 35 | 80 | 0 | 20 | 50 | Plant response rating, Corn (corn; [5]): 0; Plant response rating, Pigweed, Palmer (pigweed, palmer; [5]): 0; Plant response rating, Crabgrass, Brazil (crabgrass, Brazil; [6]): 100; Plant response rating, Crabgrass, Brazil (crabgrass, Brazil; [5]): 75; Plant response rating, Fall Panicum (fall panicum; [6]): 90; Plant response rating, Fall Panicum (fall panicum; [5]): 0; Plant response rating, Goosegrass (goosegrass; [5]): 0; Plant response rating, Johnsongrass (johnsongrass; [5]): 0; Plant response rating, Italian Ryegrass (Italian ryegrass; [4]): 0; Plant response rating, Italian Ryegrass (Italian ryegrass; [5]): 0 |
